Source: patent US20230203471A1, “METHOD AND PLATFORM FOR DISRUPTING INTRACELLULAR MICROTUBULES” (National Tsing Hua University, priority 2021, published 2023)

Experiments:
[1] = system: intracellular microtubules in HeLa cells; test: Live-cell imaging of MT disruption (MT filament area) in transfected HeLa cells; assay type: cell-based; conditions: nocodazole 3.3 µM
[2] = system: intracellular microtubules in HeLa cells; test: as above; assay type: cell-based
Protocol: The procedures of live-cell imaging are as follows. Live transfected cells cultured on poly(d-lysine)-coated glass coverslips (Hecht Assistent) were treated with either 100 nM rapamycin for rapid induction of protein dimerization and translocation or MT-targeting agents (10 µM nocodazole or 500 µM colchicine) during imaging. Live-cell imaging was conducted on a Nikon T1 inverted fluorescence microscope (Nikon) with a 60× oil objective (Nikon), a Prime camera (Photometrics), and 37° C., 5% CO2 heat stage (Live Cell Instrument). Rapid recruitment of proteins of interest (POIs) was imaged at 5- or 10-sec intervals, whereas the process of MT disruption was imaged at 1-min intervals. Images were obtained using Nikon NIS-Elements AR software and processed with Huygens Deconvolution Software (Scientific Volume Imaging). Image analysis was mainly performed with Nikon NIS-Elements AR software.
The procedures of measurement of MT filament area are as follows. The MT filaments in living cells were labeled with EMTB-CFP-FRB and imaged in real time (RAW image). The rolling ball correction was used to remove the cytosol background from the RAW images, which was carried out with the Nikon NIS-Elements AR software. Images were processed to generate the binary MT filament pattern via the Otsu threshold and analyzed by Fiji software.
FIGS. 2D and 2E show rapidly recruiting engineered spastins onto MTs. […] The top three layers are cells that simultaneously express EMTB-CFP-FRB and dNSpastin3Q-YFP-FKBP. The lower three layers are cells that simultaneously express EMTB-CFP-FRB and dNSpastin-YFP-FKBP-C2Lact. The color bar on the right indicates the brightness value represented by the color of the FRET signal. […] Data are shown as the mean ± S.E.M. It was noteworthy that MT disruption triggered by dNSpastin3Q-YFP-FKBP upon rapamycin treatment (T½ = 11.05 ± 1.52 min) was much faster than that of dNSpastin-YFP-FKBP-C2Lact upon rapamycin treatment (T½ = 53.08 ± 8.08 min), and treatment of two common MTAs, nocodazole (10 µM; T½ = 54.02 ± 10.29 min), colchicine (500 µM; T½ = 94.28 ± 8.63 min; see FIGS. 2F to 2J). […] In FIG. 2H, HeLa cells transfected with the indicated constructs were treated with nocodazole (Noc)([…], a type of MTA), colchicine (Col)(500 µM, a type of MTA), or rapamycin (Rapa)(100 nM); scale bar, 10 µm. […] Data are shown as the mean ± S.E.M. Student’s t-tests were performed, with the resulting p-values indicated.

Structure (SMILES): COC(=O)Nc1nc2ccc(C(=O)c3cccs3)cc2[nH]1 [nocodazole]
- time required to disrupt half of the intracellular microtubules [1]: 106.86 ± 12.11 min
- microtubules removed within one hour ([2]; 3.3 µM nocodazole): 31%
- T½ of MT disruption ([2]; nocodazole 10 µM, HeLa cells): 54.02 ± 10.29 min
